Laboratory results as given in ChEMBL document CHEMBL1201862, “PubChem BioAssay data set” (2004).
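Cells were grown in 96-well plates and exposed to each compound for 48 hours at five concentrations; endpoints were interpolated linearly between bracketing concentrations, or set to the highest concentration if not reached. Abbreviation: GI50, concentration required for 50% inhibition of growth.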 The source made the active and inactive calls. Cut-off read from the data, not from the text of the source: active = GI50 up to about 1.1 µM and inactive = higher.

Legend:
Experiment in all cases: inhibition of tumour cell growth, NCI panel, 48 h
EKVX = tested on: EKVX
SNB-19 = tested on: SNB-19
KM-20L2 = tested on: KM-20L2
KM12 = tested on: KM12
LXFL 529 = tested on: LXFL 529
NCI-H226 = tested on: NCI-H226
U-251 = tested on: U-251
CCRF-CEM = tested on: CCRF-CEM
A549 = tested on: A549
SNB-78 = tested on: SNB-78
SK-MEL-28 = tested on: SK-MEL-28
SF-295 = tested on: SF-295
HL-60 = tested on: HL-60
IGROV-1 = tested on: IGROV-1
DLD-1 = tested on: DLD-1
786-0 = tested on: 786-0
HCC 2998 = tested on: HCC 2998

Measured: GI50

N#CCCOCN(CO)c1nc(N(CO)COCCC#N)nc(N(CO)COCCC#N)n1
inactive: EKVX 31.2 µM | SNB-19 53.6 µM | KM-20L2 25.9 µM | KM12 33 µM | LXFL 529 17 µM | NCI-H226 22.7 µM | U-251 > 100 µM | CCRF-CEM 23.6 µM | A549 26.1 µM | SNB-78 79.4 µM | SK-MEL-28 20.7 µM | SF-295 21.7 µM | HL-60 17.7 µM | IGROV-1 > 100 µM | DLD-1 26.7 µM

CC1OC(OCC2COC(O)(Oc3c(-c4ccc(O)c(O)c4)oc4cc(O)cc(O)c4c3=O)C(O)C2O)C(O)C(O)C1O (stereo not drawn)
inactive: EKVX > 100 µM | 786-0 > 100 µM | SNB-19 > 100 µM | KM-20L2 > 100 µM | KM12 > 100 µM | LXFL 529 > 100 µM | NCI-H226 > 100 µM | U-251 > 100 µM | CCRF-CEM > 100 µM | A549 > 100 µM | SNB-78 > 100 µM | SK-MEL-28 > 100 µM | HCC 2998 > 100 µM | SF-295 > 100 µM | HL-60 > 100 µM | IGROV-1 > 100 µM | DLD-1 > 100 µM

Cc1ccc(NC(=O)c2cccc([N+](=O)[O-])c2O)c(C)c1
inactive: EKVX 17.1 µM | SNB-19 24.2 µM | KM-20L2 21.5 µM | KM12 27.7 µM | LXFL 529 14.7 µM | NCI-H226 17.1 µM | U-251 24 µM | CCRF-CEM 17.9 µM | A549 15.9 µM | SNB-78 26.9 µM | SK-MEL-28 6.97 µM | HCC 2998 40.4 µM | SF-295 20.1 µM | HL-60 17.2 µM | IGROV-1 9.84 µM | DLD-1 14.3 µM

C=C(c1ccccc1)c1cc2c(=O)[nH]ccc2n1C
inactive: EKVX 39.4 µM | 786-0 27.5 µM | SNB-19 48 µM | KM-20L2 23.3 µM | KM12 34.4 µM | LXFL 529 35.6 µM | CCRF-CEM 31.3 µM | A549 31.7 µM | SNB-78 48.5 µM | SK-MEL-28 44.7 µM | HCC 2998 35 µM | SF-295 29.9 µM | HL-60 16.3 µM | IGROV-1 44.4 µM | DLD-1 31.9 µM

Cc1cc(Br)ccc1/N=N/C1C(=O)ON=C1c1ccccc1 (stereo not drawn)
inactive: EKVX 67 µM | 786-0 > 100 µM | SNB-19 > 100 µM | KM-20L2 55.2 µM | KM12 > 100 µM | LXFL 529 69.5 µM | NCI-H226 > 100 µM | U-251 > 100 µM | A549 25.7 µM | SNB-78 > 100 µM | SK-MEL-28 > 100 µM | HCC 2998 26.5 µM | SF-295 > 100 µM | HL-60 32.1 µM | IGROV-1 > 100 µM | DLD-1 90.2 µM

O=[N+]([O-])C1C2C=CC(C2)[C@H]1c1ccco1 (stereo partly drawn)
inactive: EKVX > 100 µM | 786-0 > 100 µM | SNB-19 > 100 µM | KM-20L2 > 100 µM | KM12 > 100 µM | LXFL 529 > 100 µM | NCI-H226 > 100 µM | U-251 > 100 µM | CCRF-CEM > 100 µM | A549 > 100 µM | SNB-78 > 100 µM | HCC 2998 > 100 µM | SF-295 > 100 µM | HL-60 > 100 µM | IGROV-1 > 100 µM | DLD-1 > 100 µM

CO/N=C(/C(=O)Nc1c[n+](CC(=O)[O-])cs1)c1csc(N)n1
inactive: EKVX > 100 µM | 786-0 > 100 µM | SNB-19 > 100 µM | KM-20L2 > 100 µM | KM12 > 100 µM | LXFL 529 > 100 µM | NCI-H226 > 100 µM | U-251 > 100 µM | CCRF-CEM > 100 µM | A549 > 100 µM | SNB-78 > 100 µM | HCC 2998 > 100 µM | SF-295 > 100 µM | HL-60 > 100 µM | IGROV-1 > 100 µM | DLD-1 > 100 µM

CCCCc1c2c(nc3c1CCC/C3=C\c1ccccc1)C(=O)CCC2
inactive: EKVX 19.1 µM | 786-0 25.2 µM | SNB-19 20.1 µM | KM-20L2 22.6 µM | KM12 18.7 µM | LXFL 529 35.6 µM | NCI-H226 18.4 µM | U-251 15.2 µM | CCRF-CEM 17.4 µM | A549 25.6 µM | SNB-78 19.6 µM | SK-MEL-28 19.8 µM | HCC 2998 20.3 µM | SF-295 21.2 µM | HL-60 22.2 µM | IGROV-1 18.6 µM

CC1CCC2(NC1)OC1CC3[C@@H]4CC=C5C=CCC[C@]5(C)C4CC[C@]3(C)C1C2C (stereo partly drawn)
inactive: EKVX 19.6 µM | 786-0 16.6 µM | SNB-19 38.5 µM | KM-20L2 17.9 µM | KM12 18.9 µM | NCI-H226 35.2 µM | U-251 28.3 µM | CCRF-CEM 21 µM | A549 24 µM | SNB-78 39.4 µM | SK-MEL-28 15.6 µM | HCC 2998 17.2 µM | SF-295 23.3 µM | HL-60 12.3 µM | IGROV-1 30.3 µM | DLD-1 23.3 µM

COc1cc(-c2nn3c(=O)n(-c4ccc(Cl)cc4)c(=O)nc3s2)cc(OC)c1OC
inactive: EKVX > 86.5 µM | 786-0 12.3 µM | SNB-19 19.1 µM | KM-20L2 > 100 µM | KM12 > 65.8 µM | NCI-H226 > 55.7 µM | U-251 18 µM | CCRF-CEM > 100 µM | A549 41 µM | SNB-78 19.4 µM | SK-MEL-28 > 93.1 µM | HCC 2998 > 100 µM | SF-295 > 50 µM | HL-60 > 50 µM | IGROV-1 > 89.1 µM | DLD-1 > 86.9 µM

Cn1c(O)c(C(=O)Nc2cccs2)c(=O)[nH]c1=S
inactive: 786-0 20.2 µM | SNB-19 28.9 µM | KM-20L2 19.7 µM | KM12 17.9 µM | LXFL 529 12.1 µM | NCI-H226 14.5 µM | U-251 14.8 µM | CCRF-CEM 39 µM | A549 19.4 µM | SNB-78 18.9 µM | SK-MEL-28 15.1 µM | SF-295 15.5 µM | HL-60 78.9 µM | IGROV-1 18.2 µM | DLD-1 21.2 µM

C(=C\C(Sc1ccccc1)c1ccccc1)/NNC1=NN=C(c2ccccc2)C(c2ccccc2)N1 (stereo not drawn)
inactive: EKVX 32.9 µM | 786-0 65.2 µM | SNB-19 48.6 µM | KM-20L2 24.8 µM | KM12 58.3 µM | NCI-H226 64.4 µM | U-251 30 µM | CCRF-CEM 10.2 µM | A549 58.7 µM | SNB-78 > 100 µM | SK-MEL-28 > 100 µM | HCC 2998 27.7 µM | SF-295 32.7 µM | HL-60 15.2 µM | IGROV-1 68.5 µM | DLD-1 18.2 µM

COc1cc([N+](=O)[O-])ccc1NC(=O)c1cccc([N+](=O)[O-])c1O
inactive: EKVX 29.1 µM | SNB-19 41.5 µM | KM-20L2 27.5 µM | KM12 29.5 µM | LXFL 529 21.3 µM | NCI-H226 38.7 µM | U-251 40.1 µM | CCRF-CEM 23.2 µM | A549 21.8 µM | SNB-78 27.9 µM | SK-MEL-28 21.6 µM | HCC 2998 19 µM | SF-295 23.4 µM | HL-60 19.9 µM | IGROV-1 14.1 µM | DLD-1 16.1 µM

C1=CC(=P(c2ccccc2)(c2ccccc2)c2ccccc2)C=C1
inactive: EKVX 24.2 µM | 786-0 10.4 µM | SNB-19 4.67 µM | KM-20L2 11.3 µM | KM12 9.31 µM | LXFL 529 3.63 µM | CCRF-CEM 3.42 µM | A549 14.1 µM | SNB-78 7.5 µM | SK-MEL-28 4.45 µM | HCC 2998 10.6 µM | SF-295 15.1 µM | HL-60 2.77 µM | IGROV-1 11.5 µM | DLD-1 12.5 µM

COc1ccc(-c2cc(=O)c3c(O)cccc3o2)c(OC)c1OC
inactive: 786-0 > 100 µM | KM-20L2 > 100 µM | KM12 40.6 µM | LXFL 529 99.5 µM | NCI-H226 > 100 µM | U-251 16.1 µM | CCRF-CEM > 100 µM | A549 26.6 µM | SNB-78 51.4 µM | SK-MEL-28 > 100 µM | HCC 2998 > 100 µM | SF-295 43.2 µM | HL-60 10.1 µM | IGROV-1 > 100 µM | DLD-1 > 100 µM

COc1cc(-c2cc(=O)c3ccccc3o2)ccc1N
inactive: EKVX 12.8 µM | 786-0 > 100 µM | SNB-19 43.4 µM | KM-20L2 49.5 µM | KM12 39.3 µM | LXFL 529 > 100 µM | NCI-H226 15.2 µM | U-251 > 100 µM | CCRF-CEM 40.6 µM | A549 52.1 µM | SNB-78 > 100 µM | SK-MEL-28 > 100 µM | HCC 2998 > 100 µM | SF-295 46.7 µM | HL-60 16.6 µM | IGROV-1 > 100 µM

CS(=O)(=O)C1(Br)S(=O)(=O)OCCOS1(=O)=O
inactive: EKVX > 100 µM | 786-0 > 100 µM | SNB-19 > 100 µM | KM-20L2 > 100 µM | LXFL 529 > 100 µM | NCI-H226 > 100 µM | U-251 > 100 µM | CCRF-CEM > 100 µM | A549 > 100 µM | SNB-78 > 100 µM | SK-MEL-28 > 100 µM | HCC 2998 > 100 µM | SF-295 > 100 µM | HL-60 > 100 µM | IGROV-1 > 100 µM | DLD-1 > 100 µM
